In patent US10392422B2, “Macrocyclic broad spectrum antibiotics” (priority 2014, dated 2019):

Tested on: MRSA strain USA300
Test: SIC determination with partner beta-lactam antibiotics
Format: cell-based, Staphylococcus aureus
Protocol: Many compounds in the Examples, including Compound 155, synergize with a wide range of beta-lactam antibiotics as quantified by SIC determination, where the SIC is measured and defined in a manner identical to the MIC, […] being tested.

CCCCCCCCCCNCCC(=O)N[C@@H](CCCCN)C(=O)N(C)[C@@H]1C(=O)N[C@@H](C)C(=O)N[C@H](C(=O)N[C@@H](C)C(=O)N2CCC[C@H]2C(N)=O)Cc2ccc(O)c(c2)-c2cc1ccc2O.O=CO [Compound 155]
Compound 155 SIC (MRSA strain USA300, media contains partner beta-lactam Amoxicillin/Clav at 1/4x its MIC): 0.25 µg/mL | Compound 155 SIC (MRSA strain USA300, media contains partner beta-lactam Ampicillin at 1/4x its MIC): 1 µg/mL | Compound 155 SIC (MRSA strain USA300, media contains partner beta-lactam Azlocillin at 1/4x its MIC): 1 µg/mL | Compound 155 SIC (MRSA strain USA300, media contains partner beta-lactam Biapenem at 1/4x its MIC): 0.0625 µg/mL | Compound 155 SIC (MRSA strain USA300, media contains partner beta-lactam Carbenicillin at 1/4x its MIC): 0.5 µg/mL | Compound 155 SIC (MRSA strain USA300, media contains partner beta-lactam Cefaclor at 1/4x its MIC): 0.25 µg/mL | Compound 155 SIC (MRSA strain USA300, media contains partner beta-lactam Cefamandole at 1/4x its MIC): 0.25 µg/mL | Compound 155 SIC (MRSA strain USA300, media contains partner beta-lactam Cefazolin at 1/4x its MIC): 0.125 µg/mL | Compound 155 SIC (MRSA strain USA300, media contains partner beta-lactam Cefdinir at 1/4x its MIC): ≤0.0156 µg/mL | Compound 155 SIC (MRSA strain USA300, media contains partner beta-lactam Cefepime at 1/4x its MIC): 0.125 µg/mL | Compound 155 SIC (MRSA strain USA300, media contains partner beta-lactam Cefixime at 1/4x its MIC): 0.25 µg/mL | Compound 155 SIC (MRSA strain USA300, media contains partner beta-lactam Cefmetazole at 1/4x its MIC): 0.5 µg/mL | Compound 155 SIC (MRSA strain USA300, media contains partner beta-lactam Cefonicid at 1/4x its MIC): 0.25 µg/mL | Compound 155 SIC (MRSA strain USA300, media contains partner beta-lactam Cefotaxime at 1/4x its MIC): 0.125 µg/mL | Compound 155 SIC (MRSA strain USA300, media contains partner beta-lactam Cefotetan at 1/4x its MIC): 0.5 µg/mL | Compound 155 SIC (MRSA strain USA300, media contains partner beta-lactam Cefoxitin at 1/4x its MIC): 0.25 µg/mL | Compound 155 SIC (MRSA strain USA300, media contains partner beta-lactam Cefpodoxime at 1/4x its MIC): 0.125 µg/mL | Compound 155 SIC (MRSA strain USA300, media contains partner beta-lactam Cefprozil at 1/4x its MIC): 0.25 µg/mL | Compound 155 SIC (MRSA strain USA300, media contains partner beta-lactam Ceftazidime at 1/4x its MIC): 0.5 µg/mL | Compound 155 SIC (MRSA strain USA300, media contains partner beta-lactam Ceftizoxime at 1/4x its MIC): 0.25 µg/mL | Compound 155 SIC (MRSA strain USA300, media contains partner beta-lactam Ceftriaxone at 1/4x its MIC): 0.0625 µg/mL | Compound 155 SIC (MRSA strain USA300, media contains partner beta-lactam Cephalothin at 1/4x its MIC): 0.0625 µg/mL | Compound 155 SIC (MRSA strain USA300, media contains partner beta-lactam Doripenem at 1/4x its MIC): 0.125 µg/mL | Compound 155 SIC (MRSA strain USA300, media contains partner beta-lactam Ertapenem at 1/4x its MIC): 0.25 µg/mL | Compound 155 SIC (MRSA strain USA300, media contains partner beta-lactam Faropenem at 1/4x its MIC): ≤0.0156 µg/mL | Compound 155 SIC (MRSA strain USA300, media contains partner beta-lactam Imipenem at 1/4x its MIC): 0.125 µg/mL | Compound 155 SIC (MRSA strain USA300, media contains partner beta-lactam Mecillinam at 1/4x its MIC): 1 µg/mL | Compound 155 SIC (MRSA strain USA300, media contains partner beta-lactam Meropenem at 1/4x its MIC): 0.25 µg/mL | Compound 155 SIC (MRSA strain USA300, media contains partner beta-lactam Methicillin at 1/4x its MIC): 0.25 µg/mL | Compound 155 SIC (MRSA strain USA300, media contains partner beta-lactam Mezlocillin at 1/4x its MIC): 0.5 µg/mL | Compound 155 SIC (MRSA strain USA300, media contains partner beta-lactam Moxalactam at 1/4x its MIC): 0.125 µg/mL | Compound 155 SIC (MRSA strain USA300, media contains partner beta-lactam Oxacillin at 1/4x its MIC): 0.125 µg/mL | Compound 155 SIC (MRSA strain USA300, media contains partner beta-lactam Piperacillin/tazobactam at 1/4x its MIC): 0.5 µg/mL | Compound 155 SIC (MRSA strain USA300, media contains partner beta-lactam Ticarcillin at 1/4x its MIC): 0.125 µg/mL | Fold reduction in Compound 155 MIC (MRSA strain USA300, partner beta-lactam Amoxicillin/Clav at 1/4x its MIC): 16 | Fold reduction in Compound 155 MIC (MRSA strain USA300, partner beta-lactam Ampicillin at 1/4x its MIC): 4 | Fold reduction in Compound 155 MIC (MRSA strain USA300, partner beta-lactam Azlocillin at 1/4x its MIC): 4 | Fold reduction in Compound 155 MIC (MRSA strain USA300, partner beta-lactam Biapenem at 1/4x its MIC): 64 | Fold reduction in Compound 155 MIC (MRSA strain USA300, partner beta-lactam Carbenicillin at 1/4x its MIC): 8 | Fold reduction in Compound 155 MIC (MRSA strain USA300, partner beta-lactam Cefaclor at 1/4x its MIC): 16 | Fold reduction in Compound 155 MIC (MRSA strain USA300, partner beta-lactam Cefamandole at 1/4x its MIC): 16 | Fold reduction in Compound 155 MIC (MRSA strain USA300, partner beta-lactam Cefazolin at 1/4x its MIC): 32 | Fold reduction in Compound 155 MIC (MRSA strain USA300, partner beta-lactam Cefdinir at 1/4x its MIC): >256 | Fold reduction in Compound 155 MIC (MRSA strain USA300, partner beta-lactam Cefepime at 1/4x its MIC): 32 | Fold reduction in Compound 155 MIC (MRSA strain USA300, partner beta-lactam Cefixime at 1/4x its MIC): 16 | Fold reduction in Compound 155 MIC (MRSA strain USA300, partner beta-lactam Cefmetazole at 1/4x its MIC): 8 | Fold reduction in Compound 155 MIC (MRSA strain USA300, partner beta-lactam Cefonicid at 1/4x its MIC): 16 | Fold reduction in Compound 155 MIC (MRSA strain USA300, partner beta-lactam Cefotaxime at 1/4x its MIC): 32 | Fold reduction in Compound 155 MIC (MRSA strain USA300, partner beta-lactam Cefotetan at 1/4x its MIC): 8 | Fold reduction in Compound 155 MIC (MRSA strain USA300, partner beta-lactam Cefoxitin at 1/4x its MIC): 16 | Fold reduction in Compound 155 MIC (MRSA strain USA300, partner beta-lactam Cefpodoxime at 1/4x its MIC): 32 | Fold reduction in Compound 155 MIC (MRSA strain USA300, partner beta-lactam Cefprozil at 1/4x its MIC): 16 | Fold reduction in Compound 155 MIC (MRSA strain USA300, partner beta-lactam Ceftazidime at 1/4x its MIC): 8 | Fold reduction in Compound 155 MIC (MRSA strain USA300, partner beta-lactam Ceftizoxime at 1/4x its MIC): 16 | Fold reduction in Compound 155 MIC (MRSA strain USA300, partner beta-lactam Ceftriaxone at 1/4x its MIC): 64 | Fold reduction in Compound 155 MIC (MRSA strain USA300, partner beta-lactam Cephalothin at 1/4x its MIC): 64 | Fold reduction in Compound 155 MIC (MRSA strain USA300, partner beta-lactam Doripenem at 1/4x its MIC): 32 | Fold reduction in Compound 155 MIC (MRSA strain USA300, partner beta-lactam Ertapenem at 1/4x its MIC): 16 | Fold reduction in Compound 155 MIC (MRSA strain USA300, partner beta-lactam Faropenem at 1/4x its MIC): >256 | Fold reduction in Compound 155 MIC (MRSA strain USA300, partner beta-lactam Imipenem at 1/4x its MIC): 32 | Fold reduction in Compound 155 MIC (MRSA strain USA300, partner beta-lactam Mecillinam at 1/4x its MIC): 4 | Fold reduction in Compound 155 MIC (MRSA strain USA300, partner beta-lactam Meropenem at 1/4x its MIC): 16 | Fold reduction in Compound 155 MIC (MRSA strain USA300, partner beta-lactam Methicillin at 1/4x its MIC): 16 | Fold reduction in Compound 155 MIC (MRSA strain USA300, partner beta-lactam Mezlocillin at 1/4x its MIC): 8 | Fold reduction in Compound 155 MIC (MRSA strain USA300, partner beta-lactam Moxalactam at 1/4x its MIC): 32 | Fold reduction in Compound 155 MIC (MRSA strain USA300, partner beta-lactam Oxacillin at 1/4x its MIC): 32 | Fold reduction in Compound 155 MIC (MRSA strain USA300, partner beta-lactam Piperacillin/tazobactam at 1/4x its MIC): 8 | Fold reduction in Compound 155 MIC (MRSA strain USA300, partner beta-lactam Ticarcillin at 1/4x its MIC): 32 | Compound 155 MIC (MRSA strain USA300, partner beta-lactam: None): 4 µg/mL | synergy with beta-lactam antibiotics as quantified by SIC determination (SIC less than or equal to 1/4 MIC means sum of the FICs ≤0.5, indicating synergy): synergize
